Source: patent publication US6335350B1, “Acetamide and substituted acetamide-containing thiourea inhibitors of herpes viruses” (American Home Products Corporation, priority 1998, dated 2002)
Converted amounts (≈) assume the structure as drawn.

system: VZV strain Ellen; experiment: VZV Antiviral (ELISA) Assay; assay type: cell-based, varicella-zoster virus; details: 10 ug/ml; human foreskin fibroblast cells
Method in brief: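 Cell-based ELISA: infected/uninfected HFF mix (VZV Ellen, MOI <0.1) exposed to compound in DMEM/2% FBS for 3 days at 37° C. Anti-gpII monoclonal plus β-galactosidase-linked secondary, detected as 4-methylumbelliferone fluorescence; IC50 derived by comparing fluorescence with versus without compound.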

Compound	% inhibition 10 ug/ml VZV
N-{4-[3-(4-Acetylamino-phenyl)-thioureido]-2-chloro-phenyl}-2-dipropylamino-acetamide [Example 410]	26%
N-{4-[3-(4-Acetylamino-phenyl)-thioureido]-2-chloro-phenyl}-2-pyrrolidin-1-yl-acetamide [Example 415]	26%
N-{4-[3-(4-Acetylamino-phenyl)-thioureido]-2-chloro-phenyl}-2-thiomorpholin-4-yl-acetamide [Example 405]	83%
N-{4-[3-(5-Chloro-2,4-dimethoxy-phenyl)-thioureido]-3-methoxy-phenyl}-acetamide [Example 388]	52%

same assay, conditions: Human alphaherpesvirus 3, Fibroblast, human foreskin fibroblast cells; read-out: IC50 Ug/ml VZV

Compound	IC50
CC(=O)Nc1ccc(NC(=S)Nc2cccc(Cl)c2Cl)cc1 [Example 926, N-{4-[3-(2,3-Dichloro-phenyl)-thioureido]-phenyl}-acetamide]	> 10 µg/mL
CC(=O)Nc1ccc(NC(=S)Nc2cc(Cl)ccc2Cl)cc1 [Example 930, N-{4-[3-(2,5-Dichloro-phenyl)-thioureido]-phenyl}-acetamide]	> 10 µg/mL
CC(=O)Nc1ccc(NC(=S)Nc2cc(Cl)cc(Cl)c2)cc1 [Example 933, N-{4-[3-(3,5-Dichloro-phenyl)-thioureido]-phenyl}-acetamide]	> 10 µg/mL
CC(=O)Nc1ccc(NC(=S)Nc2cc(Cl)c(Cl)c(Cl)c2)cc1 [Example 936, N-{4-[3-(3,4,5-Trichloro-phenyl)-thioureido]-phenyl}-acetamide]	> 10 µg/mL

same assay, conditions: Human alphaherpesvirus 3, Fibroblast, read-out: % inhibition 10 ug/ml VZV, 10 ug/ml; human foreskin fibroblast cells

Compound	inhibition at 10 µg/mL
CC(=O)Nc1ccc(NC(=S)Nc2cccc(Cl)c2Cl)cc1 [Example 926, N-{4-[3-(2,3-Dichloro-phenyl)-thioureido]-phenyl}-acetamide]	16%
CC(=O)Nc1ccc(NC(=S)Nc2cc(Cl)ccc2Cl)cc1 [Example 930, N-{4-[3-(2,5-Dichloro-phenyl)-thioureido]-phenyl}-acetamide]	42%
CC(=O)Nc1ccc(NC(=S)Nc2cc(Cl)cc(Cl)c2)cc1 [Example 933, N-{4-[3-(3,5-Dichloro-phenyl)-thioureido]-phenyl}-acetamide]	21%
CC(=O)Nc1ccc(NC(=S)Nc2cc(Cl)c(Cl)c(Cl)c2)cc1 [Example 936, N-{4-[3-(3,4,5-Trichloro-phenyl)-thioureido]-phenyl}-acetamide]	51%

same assay, conditions: human foreskin fibroblast cells

Compound	IC50 Ug/ml VZV
N-{4-[3-(4-Acetylamino-phenyl)-thioureido]-2-chloro-phenyl}-2-dipropylamino-acetamide [Example 410]	>10 Ug/ml
N-{4-[3-(4-Acetylamino-phenyl)-thioureido]-2-chloro-phenyl}-2-pyrrolidin-1-yl-acetamide [Example 415]	4.5 Ug/ml
N-{4-[3-(4-Acetylamino-phenyl)-thioureido]-2-chloro-phenyl}-2-thiomorpholin-4-yl-acetamide [Example 405]	13 Ug/ml
N-{4-[3-(5-Chloro-2,4-dimethoxy-phenyl)-thioureido]-3-methoxy-phenyl}-acetamide [Example 388]	>10 Ug/ml

system: HCMV wild-type; experiment: HCMV yield assay; assay type: cell-based, human cytomegalovirus; details: Human betaherpesvirus 5, Fibroblast, human foreskin fibroblasts; read-out: IC50 Ug/ml HCMV
Method in brief: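 HCMV wild-type infected human foreskin fibroblast monolayers at MOI typically 0.2 with varying compound concentrations; virus yield harvested at 3 days post-infection and titered on fibroblasts without inhibitor, plaques counted at 2 weeks. IC50 or IC90 = compound amount reducing yield titer by 50% or 90%.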

Compound	IC50
CC(=O)Nc1ccc(NC(=S)Nc2cccc(Cl)c2Cl)cc1 [Example 926, N-{4-[3-(2,3-Dichloro-phenyl)-thioureido]-phenyl}-acetamide]	10 µg/mL (≈ 28.2 µM)
CC(=O)Nc1ccc(NC(=S)Nc2cc(Cl)ccc2Cl)cc1 [Example 930, N-{4-[3-(2,5-Dichloro-phenyl)-thioureido]-phenyl}-acetamide]	> 10 µg/mL
CC(=O)Nc1ccc(NC(=S)Nc2cc(Cl)cc(Cl)c2)cc1 [Example 933, N-{4-[3-(3,5-Dichloro-phenyl)-thioureido]-phenyl}-acetamide]	1.2 µg/mL (≈ 3.39 µM)
CC(=O)Nc1ccc(NC(=S)Nc2cc(Cl)c(Cl)c(Cl)c2)cc1 [Example 936, N-{4-[3-(3,4,5-Trichloro-phenyl)-thioureido]-phenyl}-acetamide]	1 µg/mL (≈ 2.57 µM)

same assay, conditions: human foreskin fibroblasts

Compound	IC50 Ug/ml HCMV
N-{4-[3-(4-Acetylamino-phenyl)-thioureido]-2-chloro-phenyl}-2-dipropylamino-acetamide [Example 410]	>10 Ug/ml
N-{4-[3-(4-Acetylamino-phenyl)-thioureido]-2-chloro-phenyl}-2-pyrrolidin-1-yl-acetamide [Example 415]	>10 Ug/ml
N-{4-[3-(4-Acetylamino-phenyl)-thioureido]-2-chloro-phenyl}-2-thiomorpholin-4-yl-acetamide [Example 405]	>10 Ug/ml
N-{4-[3-(5-Chloro-2,4-dimethoxy-phenyl)-thioureido]-3-methoxy-phenyl}-acetamide [Example 388]	>10 Ug/ml

system: HSV-1; experiment: HSV Antiviral (ELISA) Assay; assay type: cell-based, herpes simplex virus type 1; details: Human alphaherpesvirus 1, Vero, Vero cells, HSV-1; read-out: IC50 Ug/ml HSV
Method in brief: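 Vero cells in DMEM/2% FBS pretreated with compound 30 min before HSV-1 infection (MOI 0.006), then ~24 h at 37 °C. Viral gD detected by ELISA with β-galactosidase secondary and 4-methylumbelliferyl-galactoside (ex 365/em 450 nm); IC50 from fluorescence versus untreated infected cells.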

Compound	IC50
CC(=O)Nc1ccc(NC(=S)Nc2cccc(Cl)c2Cl)cc1 [Example 926, N-{4-[3-(2,3-Dichloro-phenyl)-thioureido]-phenyl}-acetamide]	> 10 µg/mL
CC(=O)Nc1ccc(NC(=S)Nc2cc(Cl)ccc2Cl)cc1 [Example 930, N-{4-[3-(2,5-Dichloro-phenyl)-thioureido]-phenyl}-acetamide]	10 µg/mL (≈ 28.2 µM)
CC(=O)Nc1ccc(NC(=S)Nc2cc(Cl)cc(Cl)c2)cc1 [Example 933, N-{4-[3-(3,5-Dichloro-phenyl)-thioureido]-phenyl}-acetamide]	> 10 µg/mL
CC(=O)Nc1ccc(NC(=S)Nc2cc(Cl)c(Cl)c(Cl)c2)cc1 [Example 936, N-{4-[3-(3,4,5-Trichloro-phenyl)-thioureido]-phenyl}-acetamide]	1.5 µg/mL (≈ 3.86 µM)

same assay, conditions: Vero cells, HSV-1

Compound	IC50 Ug/ml HSV
N-{4-[3-(4-Acetylamino-phenyl)-thioureido]-2-chloro-phenyl}-2-dipropylamino-acetamide [Example 410]	>10 Ug/ml
N-{4-[3-(4-Acetylamino-phenyl)-thioureido]-2-chloro-phenyl}-2-pyrrolidin-1-yl-acetamide [Example 415]	>10 Ug/ml
N-{4-[3-(4-Acetylamino-phenyl)-thioureido]-2-chloro-phenyl}-2-thiomorpholin-4-yl-acetamide [Example 405]	>10 Ug/ml
N-{4-[3-(5-Chloro-2,4-dimethoxy-phenyl)-thioureido]-3-methoxy-phenyl}-acetamide [Example 388]	0.6 Ug/ml
